10 compounds from PubChem BioAssay (NCI) can be followed below.

Each structure is given as a SMILES string.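 Test compounds were applied to cells in 96-well plates for 48 hours at 5 doses. GI50: concentration for 50% inhibition of growth. TGI is the concentration that stops growth completely.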

Among the test systems are COLO 205 colon; OVCAR-3 ovarian; EKVX NSCLC; HCT-15 colon; CCRF-CEM leukemia; SW-620 colon; SN12C renal; UO-31 renal; NCI-H522 lung; A498 renal.
Assay in all cases: inhibition of tumour cell growth, NCI panel, 48 h

As to `COc1ccc(/C=C/C(=O)c2ccc(SC)cc2)cc1OC`, the GI50 was 21 µM in the assay with COLO 205 colon; 2.12 µM in the assay with OVCAR-3 ovarian; 19.1 µM in the assay with EKVX NSCLC; 3.1 µM with HCT-15 colon; 5.26 µM in the assay on CCRF-CEM leukemia; 4.44 µM in the assay on SW-620 colon. Also, the GI50 is 13 µM in the assay on SN12C renal, 13.3 µM in the assay with UO-31 renal and 5 µM with NCI-H522 lung. Besides, the TGI in the assay with COLO 205 colon is above 100 µM; in the assay on OVCAR-3 ovarian, 6.47 µM; in the assay with EKVX NSCLC, 35.9 µM; in the assay with HCT-15 colon, 13.3 µM; with CCRF-CEM leukemia it was 82.1 µM; in the assay with SW-620 colon, above 100 µM. Moreover, the TGI in the assay with SN12C renal is 26.5 µM; in the assay with UO-31 renal it was 30.2 µM; with NCI-H522 lung it was 27.4 µM.

Regarding `CCOc1ccccc1NC(=O)CC1SC(=Nc2ccc([N+](=O)[O-])cc2)NC1=O` (configuration not stated), the TGI in the assay with COLO 205 colon was 35.1 µM; in the assay on OVCAR-3 ovarian, 31.6 µM; in the assay with EKVX NSCLC it was 72.3 µM; with CCRF-CEM leukemia, 54.3 µM; with SW-620 colon, 52.7 µM; in the assay with SN12C renal, 53.9 µM. Besides, the TGI with UO-31 renal came out at 37.7 µM.

Regarding `CCc1c(C#N)c(S[C@@H](C(N)=O)c2ccccc2)nc(N(C)C)c1C#N`, the GI50 in the assay with COLO 205 colon is above 100 µM; in the assay on OVCAR-3 ovarian, above 100 µM; in the assay on EKVX NSCLC it was 7.93 µM; in the assay on HCT-15 colon, above 100 µM; in the assay on CCRF-CEM leukemia, above 100 µM; with SW-620 colon it was above 100 µM. Moreover, the GI50 in the assay on SN12C renal was 6.81 µM; with UO-31 renal, 2.95 µM; in the assay on A498 renal, 1.3 µM. For the same compound, the TGI in the assay on COLO 205 colon, with OVCAR-3 ovarian, with EKVX NSCLC, in the assay with HCT-15 colon, with CCRF-CEM leukemia and in the assay with SW-620 colon was above 100 µM each time. In addition, the TGI in the assay with SN12C renal was above 100 µM; with UO-31 renal, above 100 µM; with A498 renal, 9.47 µM.

`Cc1ccc(/C=C2/SC(Nc3nc(-c4csc(NC5=NC(=O)/C(=C\c6ccc(C)cc6)S5)n4)cs3)=NC2=O)cc1`: the GI50 is 20.2 µM in the assay on COLO 205 colon; 3.28 µM in the assay with OVCAR-3 ovarian; 14.9 µM in the assay with EKVX NSCLC; 5.54 µM in the assay with SN12C renal; 17.9 µM with UO-31 renal; 21.6 µM with NCI-H522 lung. The TGI in the assay on COLO 205 colon is above 50 µM; in the assay with OVCAR-3 ovarian, 33.9 µM; in the assay with EKVX NSCLC, above 50 µM; in the assay on SN12C renal it was above 50 µM; in the assay on UO-31 renal it was above 50 µM; with NCI-H522 lung, above 50 µM.

As to `Cc1ccc(-n2c3c(c4c(CN(C)C)c(O)ccc42)CCc2ccccc2C3=O)cc1`, the GI50 is above 100 µM in the assay with COLO 205 colon; 21.4 µM in the assay on OVCAR-3 ovarian; 38 µM with EKVX NSCLC; 18.3 µM with HCT-15 colon; 15.1 µM in the assay on SW-620 colon; 16.3 µM in the assay on SN12C renal. In addition, the GI50 in the assay with UO-31 renal is 15.9 µM; in the assay on NCI-H522 lung, 14.9 µM; with A498 renal, 15.1 µM. In addition, the TGI is above 100 µM in the assay with COLO 205 colon; 44.5 µM in the assay with OVCAR-3 ovarian; above 100 µM with EKVX NSCLC; 35.8 µM in the assay with HCT-15 colon; 33.7 µM in the assay on SW-620 colon; 30.9 µM with SN12C renal. The TGI with UO-31 renal amounted to 38.2 µM; in the assay with NCI-H522 lung, 32.7 µM; in the assay with A498 renal it was 49.1 µM.

On to `COc1cc2cc(Oc3ccc(NC(=O)Nc4cccc(C(F)(F)F)c4)cc3)c(C)nc2cc1OC`, for which the GI50 was 1.12 µM with COLO 205 colon; 2.04 µM with OVCAR-3 ovarian; 1.48 µM in the assay with EKVX NSCLC; 1.85 µM in the assay on HCT-15 colon; 2.28 µM with SW-620 colon; 2.06 µM in the assay with SN12C renal. Moreover, the GI50 is 1.98 µM in the assay with UO-31 renal, 1.32 µM in the assay on NCI-H522 lung and 1.29 µM in the assay with A498 renal. The TGI amounted to 2.4 µM in the assay with COLO 205 colon; 8.07 µM in the assay on OVCAR-3 ovarian; 6.46 µM in the assay with EKVX NSCLC; 22.2 µM in the assay with HCT-15 colon; 11.1 µM with SW-620 colon; 16.3 µM with SN12C renal. Moreover, the TGI was found to be 10.8 µM in the assay on UO-31 renal, 4.49 µM with NCI-H522 lung and 4.95 µM with A498 renal.

In the case of `O=C1CCCCCCCC/C=C\CC(c2ccco2)O1` (configuration not stated), the GI50 was 31.6 µM in the assay on COLO 205 colon; 32.2 µM in the assay on OVCAR-3 ovarian; 26.7 µM with EKVX NSCLC; 23.5 µM in the assay with HCT-15 colon; 36 µM with CCRF-CEM leukemia; 41.5 µM with SW-620 colon. Also, the GI50 in the assay with SN12C renal is 22.2 µM; with UO-31 renal it was 21.5 µM; with NCI-H522 lung, 18.1 µM. In addition, the TGI is above 100 µM in the assay on COLO 205 colon; above 100 µM with OVCAR-3 ovarian; 75.7 µM with EKVX NSCLC; 77.9 µM with HCT-15 colon; above 100 µM with CCRF-CEM leukemia; above 100 µM in the assay with SW-620 colon. Besides, the TGI in the assay with SN12C renal worked out at 69.9 µM; in the assay with UO-31 renal, 39.9 µM; with NCI-H522 lung, 47.2 µM.

Take `Oc1cc(O)c2c(-c3c(O)c(-c4ccc(O)c(O)c4)[o+]c4cc(O)cc(O)c34)c(O)c(-c3ccc(O)c(O)c3)[o+]c2c1`: the TGI was above 100 µM with COLO 205 colon; 46.2 µM in the assay on OVCAR-3 ovarian; 86.8 µM in the assay with EKVX NSCLC; above 100 µM in the assay on HCT-15 colon; above 100 µM with SW-620 colon; above 100 µM in the assay with SN12C renal. For the same compound, the TGI in the assay with UO-31 renal was 78.3 µM; in the assay with A498 renal, above 100 µM.

For `c1ccc2[nH]c(-c3ccc(NN=Nc4ccncc4)cc3)nc2c1`, the GI50 was 27 µM in the assay with COLO 205 colon; 15.1 µM with OVCAR-3 ovarian; 11.2 µM in the assay with EKVX NSCLC; 17.7 µM with HCT-15 colon; 49.7 µM in the assay with SW-620 colon; above 100 µM in the assay on SN12C renal. In addition, the GI50 in the assay on UO-31 renal is 43.6 µM; in the assay on NCI-H522 lung, 77.6 µM. Moreover, the TGI in the assay on COLO 205 colon was above 100 µM; in the assay with OVCAR-3 ovarian, above 100 µM; with EKVX NSCLC, 54.1 µM; with HCT-15 colon, above 100 µM; in the assay on SW-620 colon, above 100 µM; with SN12C renal, above 100 µM. In addition, the TGI in the assay with UO-31 renal and with NCI-H522 lung was above 100 µM throughout.

For the compound `CN(C)c1ccc([O][Bi]([Cl])[Cl])cc1`, the GI50 in the assay on COLO 205 colon, with OVCAR-3 ovarian, in the assay with EKVX NSCLC, in the assay with HCT-15 colon, in the assay with SW-620 colon and with SN12C renal was above 100 µM each time. Further, the GI50 with UO-31 renal was above 100 µM. The TGI in the assay with COLO 205 colon, in the assay with OVCAR-3 ovarian, in the assay with EKVX NSCLC, in the assay with HCT-15 colon, with SW-620 colon and in the assay with SN12C renal was above 100 µM each time. Besides, in the assay with UO-31 renal, the TGI was above 100 µM.
